{"source": "patent US20030143266A1", "about": "“Cationic amphiphile micellar complexes” (GENZYME CORPORATION, priority 1999, published 2003)", "origin": "cited, not measured here", "system": "airway epithelial cells", "settings": "shown by elevation of cGMP levels, CFTR-dependent chloride transport, ciliary beat frequency", "data": [{"substance": "CNP-22: C-type natriuretic peptide containing 22 amino acid; binds and activates guanylate cyclase-B receptor", "values": [{"measurement": "binding to airway epithelial cells in vivo", "result": "Specific binding"}]}]}
